Test results: ChEMBL document CHEMBL4152365, “Discovery of DS-6930, a potent selective PPARγ modulator. Part I: Lead identification” (Bioorg Med Chem, 2018)

What was measured:
[1] = test system: Rattus norvegicus; experiment: Toxicity in Zucker diabetic fatty rat assessed as body weight gain at 3 mg/kg, po administered once daily for 14 days relative to control; type: organism-based; settings: in vivo, 336 h
[2] = test system: Rattus norvegicus; experiment: Toxicity in Wistar-Imamichi rat assessed as elevation in AST activity at 30 to 300 mg/kg, po administered via gavage once daily for 28 days; type: organism-based; settings: in vivo, 672 h
[3] = test system: Rattus norvegicus; experiment: Toxicity in Wistar-Imamichi rat assessed as effect on hematocrit at 30 to 300 mg/kg, po administered via gavage once daily for 28 days; type: organism-based; settings: in vivo, 672 h
[4] = Metabolic stability in rat liver microsomes after 0.5 hrs; type: ADME, microsome; settings: read-out: Stability
[5] = test system: Rattus norvegicus; experiment: Toxicity in Zucker diabetic fatty rat assessed as body weight gain at 30 mg/kg, po administered once daily for 14 days relative to control; type: organism-based; settings: in vivo, 336 h
[6] = AUC (0 to 24 hrs) in Zucker diabetic fatty rat at 0.3 mg/kg, po dosed once daily for 14 days and followed by additional administeration on day 15; type: ADME, organism-based; set-up: time < 24 hr, dose 0.3 mg/kg, route oral; settings: in vivo
[7] = test system: Rattus norvegicus; experiment: Toxicity in Zucker diabetic fatty rat assessed as body weight gain at 0.3 mg/kg, po administered once daily for 14 days relative to control; type: organism-based; settings: in vivo, 336 h
[8] = biological target: T1, Peroxisome proliferator-activated receptor alpha (Homo sapiens, UniProt Q07869); experiment: Agonist activity at recombinant human GAL4-DBD fused PPARalpha LBD expressed in COS7 cells after 24 hrs by luciferase reporter gene assay; type: cell-based
T1 sequence (Q07869 whole entry): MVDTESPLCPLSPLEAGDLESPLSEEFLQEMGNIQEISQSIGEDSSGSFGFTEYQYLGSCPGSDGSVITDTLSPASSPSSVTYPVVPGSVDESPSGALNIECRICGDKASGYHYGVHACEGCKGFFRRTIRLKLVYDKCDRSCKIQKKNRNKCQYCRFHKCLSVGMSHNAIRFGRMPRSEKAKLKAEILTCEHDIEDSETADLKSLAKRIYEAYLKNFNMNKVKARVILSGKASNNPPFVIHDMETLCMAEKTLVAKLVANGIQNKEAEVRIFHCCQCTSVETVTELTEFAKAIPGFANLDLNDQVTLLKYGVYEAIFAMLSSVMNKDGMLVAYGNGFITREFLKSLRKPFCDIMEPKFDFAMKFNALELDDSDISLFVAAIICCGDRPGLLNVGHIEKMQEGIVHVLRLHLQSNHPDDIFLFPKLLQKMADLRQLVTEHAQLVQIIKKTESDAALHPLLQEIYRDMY

[9] = Cmax in Wistar-Imamichi rat at 30 mg/kg, po via gavage once daily for 28 days measured on day 28 post dose; type: ADME, organism-based; set-up: dose 30 mg/kg, route oral; settings: in vivo
[10] = Cmax in Wistar-Imamichi rat at 0.3 mg/kg, po via gavage once daily for 28 days measured on day 28 post dose; type: ADME, organism-based; set-up: dose 0.3 mg/kg, route oral; settings: in vivo
[11] = test system: Rattus norvegicus; experiment: Toxicity in Wistar-Imamichi rat assessed as histopathological changes in liver at 30 to 300 mg/kg, po administered via gavage once daily for 28 days; type: organism-based; settings: in vivo, 672 h
[12] = Cmax in Zucker diabetic fatty rat at 30 mg/kg, po dosed once daily for 14 days and followed by additional administeration on day 15; type: ADME, organism-based; set-up: dose 30 mg/kg, route oral; settings: in vivo
[13] = test system: Rattus norvegicus; experiment: Glucose-lowering effect in Zucker diabetic fatty rat assessed as reduction in plasma glucose level at 0.3 mg/kg, po administered once daily for 14 days measured on day 14 post last dose relative to control; type: functional; set-up: scale not given: the % may be the effect or the level left
[14] = Tmax in Wistar-Imamichi rat at 30 mg/kg, po via gavage once daily for 28 days measured on day 28 post dose; type: ADME, organism-based; settings: in vivo
[15] = test system: Rattus norvegicus; experiment: Glucose-lowering effect in Zucker diabetic fatty rat assessed as reduction in plasma glucose level at 30 mg/kg, po administered once daily for 14 days measured on day 14 post last dose relative to control; type: functional; set-up: scale not given: the % may be the effect or the level left
[16] = AUC (0 to 24 hrs) in Wistar-Imamichi rat at 30 mg/kg, po via gavage once daily for 28 days measured on day 28 post dose; type: ADME, organism-based; set-up: time < 24 hr, dose 30 mg/kg, route oral; settings: in vivo
[17] = test system: Mus musculus; experiment: Toxicity in hyperglycemic KK/Ta mouse assessed as body weight gain at 30 mg/kg/day, po administered through diet for 3 days relative to control; type: organism-based; settings: in vivo, 72 h
[18] = Tmax in Zucker diabetic fatty rat at 30 mg/kg, po dosed once daily for 14 days and followed by additional administeration on day 15; type: ADME, organism-based; settings: in vivo
[19] = test system: Rattus norvegicus; experiment: Toxicity in Wistar-Imamichi rat assessed as elevation in ALT activity at 30 to 300 mg/kg, po administered via gavage once daily for 28 days; type: organism-based; settings: in vivo, 672 h
[20] = test system: Rattus norvegicus; experiment: Toxicity in Wistar-Imamichi rat assessed as death at 30 to 300 mg/kg, po administered via gavage once daily for 28 days; type: organism-based; settings: in vivo, 672 h
[21] = Cmax in Wistar-Imamichi rat at 300 mg/kg, po via gavage once daily for 28 days measured on day 28 post dose; type: ADME, organism-based; set-up: dose 300 mg/kg, route oral; settings: in vivo
[22] = Tmax in Zucker diabetic fatty rat at 0.3 mg/kg, po dosed once daily for 14 days and followed by additional administeration on day 15; type: ADME, organism-based; settings: in vivo
[23] = test system: Rattus norvegicus; experiment: Toxicity in Zucker diabetic fatty rat assessed as body weight gain administered orally once daily for 14 day; type: organism-based; settings: in vivo, po, 336 h
[24] = test system: Rattus norvegicus; experiment: Glucose-lowering effect in Zucker diabetic fatty rat assessed as reduction in plasma glucose level at 3 mg/kg, po administered once daily for 14 days measured on day 14 post last dose relative to control; type: functional; set-up: scale not given: the % may be the effect or the level left
[25] = test system: Mus musculus; experiment: Glucose-lowering effect in hyperglycemic KK/Ta mouse assessed as reduction in plasma glucose level at 30 mg/kg/day, po administered through diet for 3 days relative to control; type: functional; set-up: scale not given: the % may be the effect or the level left
[26] = Tmax in Zucker diabetic fatty rat at 3 mg/kg, po dosed once daily for 14 days and followed by additional administeration on day 15; type: ADME, organism-based; settings: in vivo
[27] = AUC (0 to 24 hrs) in Zucker diabetic fatty rat at 3 mg/kg, po dosed once daily for 14 days and followed by additional administeration on day 15; type: ADME, organism-based; set-up: dose 3 mg/kg, time < 24 hr, route oral; settings: in vivo
[28] = Cmax in Zucker diabetic fatty rat at 3 mg/kg, po dosed once daily for 14 days and followed by additional administeration on day 15; type: ADME, organism-based; set-up: dose 3 mg/kg, route oral; settings: in vivo
[29] = Cmax in Zucker diabetic fatty rat at 0.3 mg/kg, po dosed once daily for 14 days and followed by additional administeration on day 15; type: ADME, organism-based; set-up: dose 0.3 mg/kg, route oral; settings: in vivo
[30] = Tmax in Wistar-Imamichi rat at 300 mg/kg, po via gavage once daily for 28 days measured on day 28 post dose; type: ADME, organism-based; settings: in vivo
[31] = AUC (0 to 24 hrs) in Zucker diabetic fatty rat at 30 mg/kg, po dosed once daily for 14 days and followed by additional administeration on day 15; type: ADME, organism-based; set-up: time < 24 hr, dose 30 mg/kg, route oral; settings: in vivo
[32] = test system: Rattus norvegicus; experiment: Toxicity in Wistar-Imamichi rat assessed as clinical abnormality at 30 to 300 mg/kg, po administered via gavage once daily for 28 days; type: organism-based; settings: in vivo, 672 h
[33] = test system: Rattus norvegicus; experiment: Toxicity in Wistar-Imamichi rat assessed as effect on hemodilution by measuring increase in heart weight at 300 mg/kg, po administered via gavage once daily for 28 days; type: organism-based; settings: in vivo, 672 h
[34] = AUC (0 to 24 hrs) in Wistar-Imamichi rat at 100 mg/kg, po via gavage once daily for 28 days measured on day 28 post dose; type: ADME, organism-based; set-up: time < 24 hr, dose 100 mg/kg, route oral; settings: in vivo
[35] = Plasma concentration in hyperglycemic KK/Ta mouse at 30 mg/kg/day, po administered through diet for 3 days measured on day 3 post last dose; type: ADME, organism-based
[36] = test system: Rattus norvegicus; experiment: Toxicity in Wistar-Imamichi rat assessed as reduction in RBC count at 30 to 300 mg/kg, po administered via gavage once daily for 28 days; type: organism-based; settings: in vivo, 672 h
[37] = AUC (0 to 24 hrs) in Wistar-Imamichi rat at 0.3 mg/kg, po via gavage once daily for 28 days measured on day 28 post dose; type: ADME, organism-based; set-up: time < 24 hr, dose 0.3 mg/kg, route oral; settings: in vivo
[38] = Tmax in Wistar-Imamichi rat at 100 mg/kg, po via gavage once daily for 28 days measured on day 28 post dose; type: ADME, organism-based; settings: in vivo
[39] = AUC (0 to 24 hrs) in Wistar-Imamichi rat at 300 mg/kg, po via gavage once daily for 28 days measured on day 28 post dose; type: ADME, organism-based; set-up: dose 300 mg/kg, time < 24 hr, route oral; settings: in vivo
[40] = Cmax in Wistar-Imamichi rat at 100 mg/kg, po via gavage once daily for 28 days measured on day 28 post dose; type: ADME, organism-based; set-up: dose 100 mg/kg, route oral; settings: in vivo

Cn1c(COc2cccc(C(=O)O)c2)nc2ccc(Oc3ccc(Cl)c(F)c3)cc21
Activity [1]: 12.4% | Activity [2]: Toxic | Activity [3]: Non-Toxic | remaining at 0.5 h [4]: 94% | Activity [5]: 16.7% | AUC at 24 h [6]: 1740 ng·h/mL | Activity [7]: 2.3% | EC50 [8]: > 10 µM | Cmax [9]: 9100 ng/mL | Cmax [10]: 180 ng/mL | Activity [11]: Non-Toxic | Cmax [12]: 8080 ng/mL | Activity [13]: 16.6% | Tmax [14]: 4 h | Activity [15]: 74.9% | AUC at 24 h [16]: 93700 ng·h/mL | Activity [17]: 4.4% | Tmax [18]: 2 h | Activity [19]: Toxic | Activity [20]: Non-Toxic | Cmax [21]: 22600 ng/mL | Tmax [22]: 6.8 h | Activity [23]: Dose-dependent effect | Activity [24]: 43.8% | Activity [25]: 43.2% | Tmax [26]: 2.4 h | AUC at 24 h [27]: 6750 ng·h/mL | Cmax [28]: 920 ng/mL | Cmax [29]: 180 ng/mL | Tmax [30]: 3 h | AUC at 24 h [31]: 55800 ng·h/mL | Activity [32]: Non-Toxic | Activity [33]: 9.9% | AUC at 24 h [34]: 192000 ng·h/mL | concentration at 72 h [35]: 570 ng/mL | Activity [36]: Non-Toxic | AUC at 24 h [37]: 1740 ng·h/mL | Tmax [38]: 5 h | AUC at 24 h [39]: 190000 ng·h/mL | Cmax [40]: 14900 ng/mL
